Each structure is given as a SMILES string.

Broadly, the inhibition is the drop in the measured response relative to a control, in per cent.

This assay has as its target CDK2 (UniProt P24941). In words: Enzyme Assay. The settings on record: concentration not given here.
Regarding `CC[C@H](C)[C@@H](CO)NC(=O)c1ccc(Nc2nc(N)c(C(=O)c3c(F)cccc3F)s2)cc1`, the inhibition is -7%.

For the compound `C=C(C)CN(C)C(=O)c1ccc(Nc2nc(N)c(C(=O)c3c(F)cccc3F)s2)cc1`, the inhibition is -2%.

Consider `Nc1nc(Nc2ccc(C(=O)N3CCN(c4ccncc4)CC3)cc2)sc1C(=O)c1c(F)cccc1F`, for which the inhibition is -1%. With `CCCCC(CC)NC(=O)c1ccc(Nc2nc(N)c(C(=O)c3c(F)cccc3F)s2)cc1` (stereo not given), the inhibition is -30%. As for `CC1CN(C(=O)c2ccc(Nc3nc(N)c(C(=O)c4c(F)cccc4F)s3)cc2)CC(C)O1` (stereo not given), the inhibition was -10%.

Consider `Cc1nccc(-c2cccc(NC(=O)c3ccc(Nc4nc(N)c(C(=O)c5c(F)cccc5F)s4)cc3)c2)n1`, for which the inhibition is -40%.

As to `Nc1nc(Nc2ccc(C(=O)NCCCN3CCCC3=O)cc2)sc1C(=O)c1c(F)cccc1F`, the inhibition is -23%.

Turning to `COc1ccc(CNC(=O)c2ccc(Nc3nc(N)c(C(=O)c4c(F)cccc4F)s3)cc2)cc1OC`, the inhibition was -2%. In the case of `CCSCCNC(=O)c1ccc(Nc2nc(N)c(C(=O)c3c(F)cccc3F)s2)cc1`, the inhibition is -6%. Consider `CCOCCNC(=O)c1ccc(Nc2nc(N)c(C(=O)c3c(F)cccc3F)s2)cc1`, for which the inhibition was -4%.

On to `CN(Cc1ccccc1)C(=O)c1ccc(Nc2nc(N)c(C(=O)c3c(F)cccc3F)s2)cc1`, for which the inhibition was -1%. The figure for `CCCCN(Cc1ccccc1)C(=O)c1ccc(Nc2nc(N)c(C(=O)c3c(F)cccc3F)s2)cc1` is -17%. With `C[C@@H](NC(=O)c1ccc(Nc2nc(N)c(C(=O)c3c(F)cccc3F)s2)cc1)C1CCCCC1`, the inhibition was -18%. Take `Cc1cccc(Cl)c1NC(=O)c1ccc(Nc2nc(N)c(C(=O)c3c(F)cccc3F)s2)cc1`: the inhibition was -12%. Next, `CCN(CC)CCN(C)C(=O)c1ccc(Nc2nc(N)c(C(=O)c3c(F)cccc3F)s2)cc1`: -9%. Next, `CCOc1ccccc1CCNC(=O)c1ccc(Nc2nc(N)c(C(=O)c3c(F)cccc3F)s2)cc1`: -19%. Turning to `COc1ccc(OC)c(CCNC(=O)c2ccc(Nc3nc(N)c(C(=O)c4c(F)cccc4F)s3)cc2)c1`, the inhibition was -5%. Take `Cc1ccc(CCNC(=O)c2ccc(Nc3nc(N)c(C(=O)c4c(F)cccc4F)s3)cc2)cc1`: the inhibition is 14%. For the compound `CN(C)CCCN1CCN(C(=O)c2ccc(Nc3nc(N)c(C(=O)c4c(F)cccc4F)s3)cc2)CC1`, the inhibition is -14%.

Consider `CCN(C(=O)c1ccc(Nc2nc(N)c(C(=O)c3c(F)cccc3F)s2)cc1)C1CCCCC1`, for which the inhibition is -10%. With `C#CCCN(C)C(=O)c1ccc(Nc2nc(N)c(C(=O)c3c(F)cccc3F)s2)cc1`, the inhibition came out at 0%. In the case of `CC(CCc1ccccc1)NC(=O)c1ccc(Nc2nc(N)c(C(=O)c3c(F)cccc3F)s2)cc1` (stereo not given), the inhibition was -6%. Next, `Nc1nc(Nc2ccc(C(=O)Nc3ccc4ncsc4c3)cc2)sc1C(=O)c1c(F)cccc1F`: 13%; `CC1CC(C)CN(C(=O)c2ccc(Nc3nc(N)c(C(=O)c4c(F)cccc4F)s3)cc2)C1` (stereo not given): -33%.

Regarding `CN(Cc1ccncc1)C(=O)c1ccc(Nc2nc(N)c(C(=O)c3c(F)cccc3F)s2)cc1`, the inhibition is 1%. Next, `C=CCN(C(=O)c1ccc(Nc2nc(N)c(C(=O)c3c(F)cccc3F)s2)cc1)C1CCCCC1`: -15%; `Nc1nc(Nc2ccc(C(=O)N3CCCC3)cc2)sc1C(=O)c1c(F)cccc1F`: -15%; `C#CCc1ccc(NC(=O)c2ccc(Nc3nc(N)c(C(=O)c4c(F)cccc4F)s3)cc2)cc1`: 1%. On to `CCOC(=O)c1ccc(NC(=O)c2ccc(Nc3nc(N)c(C(=O)c4c(F)cccc4F)s3)cc2)cc1`, for which the inhibition was found to be 1%.

As to `Nc1nc(Nc2ccc(C(=O)N3CCN(CCCO)CC3)cc2)sc1C(=O)c1c(F)cccc1F`, the inhibition was -14%. Take `Nc1nc(Nc2ccc(C(=O)NCCc3ccc(Cl)cc3)cc2)sc1C(=O)c1c(F)cccc1F`: the inhibition was 0%. In the case of `CC(C)(C)C1CCC(NC(=O)c2ccc(Nc3nc(N)c(C(=O)c4c(F)cccc4F)s3)cc2)CC1` (stereo not given), the inhibition is -23%.

As for `CC(=O)N(C)C1CCN(C(=O)c2ccc(Nc3nc(N)c(C(=O)c4c(F)cccc4F)s3)cc2)C1` (stereo not given), the inhibition was -21%. The figure for `CC(=O)Nc1ccccc1C(=O)c1sc(Nc2ccc(C(=O)NC[C@@H]3CCCN3C)cc2)nc1N` is 0%; for `C#CCN(C)C(=O)c1ccc(Nc2nc(N)c(C(=O)c3c(F)cccc3F)s2)cc1` it is -14%.

On to `CN(C)C(=O)CN(C)C(=O)c1ccc(Nc2nc(N)c(C(=O)c3c(F)cccc3F)s2)cc1`, for which the inhibition is -23%. Regarding `Nc1nc(Nc2ccc(C(=O)Nc3cccc(F)c3)cc2)sc1C(=O)c1c(F)cccc1F`, the inhibition is -6%. `Cc1cccc(CN(C)C(=O)c2ccc(Nc3nc(N)c(C(=O)c4c(F)cccc4F)s3)cc2)n1`: the inhibition is -1%. On to `CN(C)CCN1CCN(C(=O)c2ccc(Nc3nc(N)c(C(=O)c4c(F)cccc4F)s3)cc2)CC1`, for which the inhibition is -17%. In the case of `NC(=O)c1cccc(NC(=O)c2ccc(Nc3nc(N)c(C(=O)c4c(F)cccc4F)s3)cc2)c1`, the inhibition was -1%. In the case of `CCCCN(CCCCO)C(=O)c1ccc(Nc2nc(N)c(C(=O)c3c(F)cccc3F)s2)cc1`, the inhibition is -12%.

`N#CCCSc1ccccc1NC(=O)c1ccc(Nc2nc(N)c(C(=O)c3c(F)cccc3F)s2)cc1`: the inhibition was -14%.

In the case of `N#CCCN(Cc1ccccc1)C(=O)c1ccc(Nc2nc(N)c(C(=O)c3c(F)cccc3F)s2)cc1`, the inhibition is 0%.

Regarding `CCOC(=O)/C=C/c1ccc(Nc2nc(N)c(C(=O)c3c(F)cccc3F)s2)cc1`, the inhibition is -3%. For `CN1CCN(C(=O)c2ccc(Nc3nc(N)c(C(=O)c4c(F)cccc4F)s3)cc2)CC1`, the inhibition is -9%. For the compound `Cc1cccc(N2CCN(C(=O)c3ccc(Nc4nc(N)c(C(=O)c5c(F)cccc5F)s4)cc3)CC2C)c1` (stereo not given), the inhibition is -23%.

Regarding `CCCN(CCc1ccccn1)C(=O)c1ccc(Nc2nc(N)c(C(=O)c3c(F)cccc3F)s2)cc1`, the inhibition is -12%. Take `CCCN(CC1CC1)C(=O)c1ccc(Nc2nc(N)c(C(=O)c3c(F)cccc3F)s2)cc1`: the inhibition was -3%. With `CCCCN(CCC#N)C(=O)c1ccc(Nc2nc(N)c(C(=O)c3c(F)cccc3F)s2)cc1`, the inhibition stood at 4%. In the case of `CC(C)NC(=O)c1ccc(Nc2nc(N)c(C(=O)c3c(F)cccc3F)s2)cc1`, the inhibition is -10%.

These data come from the Kinase Knowledgebase extract (Sharma et al. 2016).
